Assay [1] addresses recombinant M^Pro (Severe acute respiratory syndrome coronavirus 2, UniProt P0DTD1). The experiment in a line: SARS-CoV-2 Mpro screening and IC50 determination (QS1 fluorogenic substrate, Drag assay). It is filed as biochemical. The conditions noted are these: for inhibition at 10 µM: read-out: M^Pro (%inh)@10μM.
In assay [2] the target is PL^Pro (Severe acute respiratory syndrome coronavirus 2, UniProt P0DTD1). The assay is described as follows: SARS-CoV-2 PLpro screening (Ac-LRGG-ACC substrate). The conditions noted are these: read-out: PL^Pro (%inh)@10μM. In kind it is biochemical.
Where [3] appears, read: recombinant M^Pro, 20 μM QS1 (Ac-Abu-Tle-Leu-Gln-ACC) substrate, Table 1, read-out: M^Pro IC50.
Setting [4] is: recombinant M^Pro, 20 μM QS1 substrate, Table 3, read-out: M^Pro IC50.
[5] abbreviates: recombinant M^Pro, 20 μM QS1 substrate, Table 5, read-out: IC50 (μM) M^Pro.

By IC50 is commonly meant the point on the concentration scale where inhibition reaches its midpoint.

Where two headings read alike, the source gives them in different places.

As to `CC(C)C[C@H](NC(=O)c1ccc(-c2ccc(Cl)cc2)cc1)C(=O)N[C@H](C#N)C[C@@H]1CCNC1=O` [6a], in assay [1], the “activity / biochemical potency against M^Pro (in words)” value is listed as “submicromolar” and the inhibition at 10 µM is more than 95%. Moreover, the IC50 in assay [1] (setting [3]) amounted to 0.724 µM. Further, in assay [2], the inhibition at 10 µM is less than 50%.

On to `CC(C)C[C@H](NC(=O)c1ccc(-c2ccc(F)cc2)cc1)C(=O)N[C@H](C#N)C[C@@H]1CCNC1=O` [6b], for which, in assay [1], the “activity / biochemical potency against M^Pro (in words)” value was “submicromolar” and the inhibition at 10 µM is more than 95%. Besides, the IC50 in assay [1] (setting [3]) amounted to 0.849 µM. The inhibition at 10 µM in assay [2] was less than 50%.

As to `CCOc1ccc(-c2ccc(C(=O)N[C@@H](CC(C)C)C(=O)N[C@H](C#N)C[C@@H]3CCNC3=O)cc2)cc1` [6c], the figures for the inhibition at 10 µM in assay [1] and in assay [2] were more than 95% and less than 50%, respectively. The IC50 in assay [1] (setting [3]) came to 0.765 µM.

In the case of `COc1ccc(-c2ccc(C(=O)N[C@@H](CC(C)C)C(=O)N[C@H](C#N)C[C@@H]3CCNC3=O)cc2)cc1` [6d], the inhibition at 10 µM in assay [1] was more than 95%; in assay [2], less than 50%. Further, in assay [1] (setting [3]), the IC50 was 0.735 µM.

Take `COc1ccccc1-c1ccc(C(=O)N[C@@H](CC(C)C)C(=O)N[C@H](C#N)C[C@@H]2CCNC2=O)cc1` [6g]: the values for the inhibition at 10 µM in assay [1] and in assay [2] were more than 95% and less than 50%, respectively. For the same compound, the IC50 was more than 1 µM in assay [1] (read-out: M^Pro IC50) and 1.09 µM in assay [1] (setting [3]).

For the compound `CC(C)C[C@H](NC(=O)c1ccc(-c2cncc(Cl)c2)cc1)C(=O)N[C@H](C#N)C[C@@H]1CCNC1=O` [6h], the inhibition at 10 µM in assay [1] is more than 95%; in assay [2], less than 50%. For the same compound, the IC50 is more than 1 µM in assay [1] (read-out: M^Pro IC50) and 1.3 µM in assay [1] (setting [3]).

For the compound `CCOc1cccc(-c2ccc(C(=O)N[C@@H](CC(C)C)C(=O)N[C@H](C#N)C[C@@H]3CCNC3=O)cc2)c1` [6i], the inhibition at 10 µM in assay [1] was more than 95%; in assay [2], less than 50%. Further, the IC50 in assay [1] (setting [3]) came to 0.798 µM.

On to `COc1ccc(-c2ccc(C(=O)N[C@@H](CC(C)C)C(=O)N[C@H](C#N)C[C@@H]3CCNC3=O)cc2)cn1` [6k], for which the inhibition at 10 µM is more than 95% in assay [1] and less than 50% in assay [2]. Also, the IC50 was more than 1 µM in assay [1] (read-out: M^Pro IC50) and 1.21 µM in assay [1] (setting [3]).

Consider `CCOc1ccc(-c2ccc(C(=O)N[C@@H](CC(C)C)C(=O)N[C@H](C#N)C[C@@H]3CCNC3=O)cc2)cc1F` [6m], for which the inhibition at 10 µM in assay [1] is more than 95%; in assay [2] it was less than 50%. The IC50 in assay [1] (setting [3]) is 0.731 µM.

With `CC(C)C[C@H](NC(=O)c1ccc(-c2ccc3cnn(C)c3c2)cc1)C(=O)N[C@H](C#N)C[C@@H]1CCNC1=O` [6n], the results for the inhibition at 10 µM in assay [1] and in assay [2] were more than 95% and less than 50%, respectively. Also, the IC50 in assay [1] (setting [3]) is 0.653 µM.

With `CC(C)C[C@@H](NC(=O)c1ccc(Br)cc1)C(=O)N[C@H](C#N)C[C@@H]1CCNC1=O` [11b], the inhibition at 10 µM was less than 95% in assay [1] and less than 50% in assay [2].

For `CCCC(NC(=O)c1ccc(Br)cc1)C(=O)NC(C#N)CC1CCNC1=O` (stereo not shown) [11c], the figures for the inhibition at 10 µM in assay [1] and in assay [2] were less than 95% and less than 50%, respectively.

Consider `N#CC(CC1CCNC1=O)NC(=O)C(CC1CCCCC1)NC(=O)c1ccc(Br)cc1` (stereo not shown) [11d], for which the inhibition at 10 µM in assay [1] is less than 95%; in assay [2], less than 50%.

Regarding `N#C[C@H](C[C@@H]1CCNC1=O)NC(=O)C1(NC(=O)c2ccc(Br)cc2)CCCCC1` [11e], the inhibition at 10 µM in assay [1] was more than 95%; in assay [2], less than 50%.

For `CC(C)C[C@@H](NC(=O)c1ccc(-c2ccc(Cl)cc2)cc1)C(=O)N[C@H](C#N)C[C@@H]1CCNC1=O` [12a], the figures for the inhibition at 10 µM in assay [1] and in assay [2] were more than 95% and less than 50%, respectively. Moreover, the IC50 in assay [1] (setting [3]) was found to be 3.24 µM.

Turning to `CC(C)C[C@@H](NC(=O)c1ccc(-c2ccc(F)cc2)cc1)C(=O)N[C@H](C#N)C[C@@H]1CCNC1=O` [12b], the inhibition at 10 µM was more than 95% in assay [1] and less than 50% in assay [2]. In assay [1] (setting [3]), the 50% inhibitory concentration (IC50) amounted to 4.03 µM.

In the case of `CC(C)C[C@@H](NC(=O)c1ccc(-c2ccc(F)nc2)cc1)C(=O)N[C@H](C#N)C[C@@H]1CCNC1=O` [12c], the inhibition at 10 µM in assay [1] was more than 95%; in assay [2], less than 50%. For the same compound, the IC50 in assay [1] (setting [3]) was found to be 5.83 µM.

With `CCC[C@H](NC(=O)c1ccc(-c2ccccc2OC)cc1)C(=O)N[C@H](C#N)C[C@@H]1CCNC1=O` [12d], the inhibition at 10 µM in assay [1] is less than 95%; in assay [2], less than 50%.

For the compound `CCC[C@H](NC(=O)c1ccc(-c2cccc(OC)c2)cc1)C(=O)N[C@H](C#N)C[C@@H]1CCNC1=O` [12e], the figures for the inhibition at 10 µM in assay [1] and in assay [2] were more than 95% and less than 50%, respectively. Moreover, the IC50 in assay [1] (setting [3]) came out at 4.86 µM.

As for `COc1cccc(-c2ccc(C(=O)N[C@@H](CC(C)C)C(=O)N[C@H](C#N)C[C@@H]3CCNC3=O)c(F)c2F)c1` [18d], the IC50 in assay [1] (setting [4]) came to 0.171 µM.

For the compound `COc1ccc(-c2ccc(C(=O)N[C@@H](CC(C)C)C(=O)N[C@H](C#N)C[C@@H]3CCNC3=O)c(F)c2F)cc1` [18e], the IC50 in assay [1] (setting [4]) worked out at 0.155 µM.

For the compound `COc1cccc(-c2cc(F)c(C(=O)N[C@@H](CC(C)C)C(=O)N[C@H](C#N)C[C@@H]3CCNC3=O)cc2F)c1` [18f], the IC50 in assay [1] (setting [4]) was 0.245 µM.

In the case of `COc1ccc(-c2cc(F)c(C(=O)N[C@@H](CC(C)C)C(=O)N[C@H](C#N)C[C@@H]3CCNC3=O)cc2F)cc1` [18g], the IC50 in assay [1] (setting [4]) is 0.229 µM.

`COc1cccc(-c2ccc(C(=O)N[C@@H](CC(C)C)C(=O)N[C@H](C#N)C[C@@H]3CCNC3=O)cc2F)c1` [18h]: the IC50 in assay [1] (setting [4]) turned out to be 0.694 µM.

As to `COc1ccc(-c2ccc(C(=O)N[C@@H](CC(C)C)C(=O)N[C@H](C#N)C[C@@H]3CCNC3=O)cc2F)cc1` [18i], the IC50 in assay [1] (setting [4]) worked out at 0.661 µM.

In the case of `COc1cccc(-c2ccc(C(=O)N[C@@H](CC(C)C)C(=O)N[C@H](C#N)C[C@@H]3CCNC3=O)c(C)c2)c1` [18j], in assay [1] (setting [4]), the IC50 came out at 0.163 µM.

As for `COc1cccc(-c2ccc(C(=O)N[C@@H](CC(C)C)C(=O)N[C@H](C#N)C[C@@H]3CCNC3=O)c(C(F)(F)F)c2)c1` [18l], the IC50 in assay [1] (setting [4]) came out at 0.115 µM.

Turning to `COc1cccc(-c2ccc(C(=O)N3C[C@H]4[C@@H]([C@H]3C(=O)N[C@H](C#N)C[C@@H]3CCNC3=O)C4(C)C)cc2)c1` [22a], the IC50 in assay [1] (setting [5]) was determined as 1.02 µM.

As for `COc1ccc(-c2ccc(C(=O)N3C[C@H]4[C@@H]([C@H]3C(=O)N[C@H](C#N)C[C@@H]3CCNC3=O)C4(C)C)cc2)cc1` [22b], the IC50 in assay [1] (setting [5]) was found to be 1.13 µM.

As to `COc1cccc(-c2ccc(C(=O)N3C[C@H]4[C@@H]([C@H]3C(=O)N[C@H](C#N)C[C@@H]3CCNC3=O)C4(C)C)c(F)c2)c1` [22c], in assay [1] (setting [5]), the IC50 is 0.465 µM.

With `COc1ccc(-c2ccc(C(=O)N3C[C@H]4[C@@H]([C@H]3C(=O)N[C@H](C#N)C[C@@H]3CCNC3=O)C4(C)C)c(F)c2)cc1` [22d], the half-inhibitory concentration (IC50) in assay [1] (setting [5]) worked out at 0.394 µM.

For `COc1cccc(-c2ccc(C(=O)N3C[C@@H]4CCC[C@@H]4[C@H]3C(=O)N[C@H](C#N)C[C@@H]3CCNC3=O)cc2)c1` [22g], in assay [1] (setting [5]), the IC50 amounted to 2.67 µM.

With `COc1ccc(-c2ccc(C(=O)N3C[C@@H]4CCC[C@@H]4[C@H]3C(=O)N[C@H](C#N)C[C@@H]3CCNC3=O)cc2)cc1` [22h], the concentration for half-maximal inhibition (IC50) in assay [1] (setting [5]) was determined as 2.99 µM.

Turning to `COc1cccc(-c2ccc(C(=O)N3C[C@@H]4CCC[C@@H]4[C@H]3C(=O)N[C@H](C#N)C[C@@H]3CCNC3=O)c(F)c2)c1` [22i], the IC50 in assay [1] (setting [5]) is 1.91 µM.

With `COc1ccc(-c2ccc(C(=O)N3C[C@@H]4CCC[C@@H]4[C@H]3C(=O)N[C@H](C#N)C[C@@H]3CCNC3=O)c(F)c2)cc1` [22j], in assay [1] (setting [5]), the IC50 stood at 1.27 µM.

Source of the values: PMC12516390 (ACS Medicinal Chemistry Letters, 2025).
